Patent US4485088A, “Method of treatment of fibrotic lesions by topical administration of lathyrogenic drugs” (Bio-Products, Inc., priority 1982, dated 1984)
“Also recorded” adds a separate entry of the source. Structures can show the parent of a compound that is named as a salt. Where two headings read alike, the source gives them in different places.

What was measured:
[1] = Storage stability of BAPN base; assay type: physicochemical
[2] = Skin penetration of BAPN base versus BAPN fumarate; assay type: in vitro ADME; conditions: BAPN base vs BAPN fumarate
monoamine oxidase (MAO) = conditions: cited from earlier work
lysyl oxidase [3] = conditions: cited from earlier work
lysyl oxidase [4] = conditions: isoniazid with BAPN; cited from earlier work
collagen [5] = conditions: cited from earlier work
lysyl oxidase [6] = conditions: single systemic moderate dose; cited from earlier work
scleroderma = conditions: cited from earlier work
collagen [7] = conditions: cited from earlier work; remark: listed apart in the source
[8] = Topical cytotoxicity of BAPN; assay type: in vivo
Source text: Although the pathogenesis of the above disorders may differ, in every one it was postulated that the physical properties of the scar tissue were affected by abnormal cross-linking of the collagenous component. A variety of methods was proposed and used to alleviate the problems of abnormal reactivity of polymerized scar tissue (Peacock and Van Winkle 1976). […] The ideal method of topical administration would be the noninvasive percutaneous resorption of BAPN painted onto the skin as proposed in this disclosure. […] These findings assured me that topical BAPN is safe, effective and optimal therapeutic regimen to achieve significant interference with maturation of collagenous structure in tissues with an injury.

lysyl oxidase [9] = assay: Lysyl oxidase activity in granuloma tissue after topical application (Example 4); assay type: in vivo, rats, Sprague-Dawley
Method: Two groups of rats, four rats in each group, 250 g body weight, Sprague-Dawley males, were implanted subcutaneously with a polyvinylalcohol sponge (Ivalon, Unipoint Labs, New Jersey) in the dorsal region through an incision distal from the placement of the sponge.
A solution of 0.1 ml of β-aminopropionitrile (200 mg BAPN/ml) was applied every 12 hours onto the skin over the implanted sponge for a total of seven days. Then the rats were sacrificed, reactive granuloma tissue excised and used for the determination of the activity of lysyl oxidase.
There were four rats in each group.
Variability is given by standard deviation.
Significance of the results tested by Student's t-test.

[10] = systemic, rats; cited from earlier work
[11] = Recovery from urine after administration on skin through hydrophilic bag container (Example 2); assay type: in vivo, rats
Method: The experimental conditions were similar to those of Example 1 for Group 6. A 0.4 ml solution of 1.1M β-aminopropionitrile fumarate containing 200 mg/ml and 2 μCi of the same ^14 C labeled substance was placed into a hydrophilic bag membrane. This membrane contained 80% water. The container bag was placed onto the shaved skin area of 4 cm^2, covered with impermeable occlusive dressing represented by Blenderm surgical tape (3M, Minnesota). The rats were placed in metabolic cages and at defined time intervals, the urine was collected and the amount of radioactive drug determined.
Time indicates the urine sampling period. Recovery is given in percent of the dose administered into the hydrophilic bag.

[12] = systemic, dogs; cited from earlier work
human collagen = conditions: in vivo; cited from earlier work
[13] = Acute toxicity, LD50 (Example 3); set-up: species or system CD-1 mice; conditions: mouse, in vivo, 24-hour observation
Method: The determination of lethal dose, killing within a certain time after the administration of the tested drug 50% of the exposed animals, is a standard method of evaluation of the toxicity of a drug.
A total of 40 male CD-1 mice with a body weight of 20 g were injected either intraperitoneally with β-aminopropionitrile fumarate or the drug was applied in a solution onto the shaved dorsal aspect of the skin. Four dosage levels spaced in geometric progression were evaluated using five animals for each dose.

[14] = Percutaneous absorption of BAPN-fumarate, drug recovery in urine (Example 1); assay type: in vivo, rats, Sprague Dawley
Method: Adult rats, Sprague Dawley strain, were shaved on the dorsum. A 0.1 ml solution of 0.16M β-aminopropionitrile fumarate, containing 30 mg BAPN/ml of phosphate buffer (0.1M, pH 7.2) and for easy detection 2 μCi of ^14 C-β-aminopropionitrile fumarate was painted on the shaved skin area 2×2 cm of a rat. In another rat, the shaved skin was washed first with 2% Ivory soap, in the next group the skin area after painting was covered with occlusive bandage. In another group of rats (Table 1) the drug was administered onto the skin the drug in 60% dimethyl sulfoxide, a solvent known to increase percutaneous absorption. Finally, in the last group (Table 1), the basic solution was administered into a small container made of a hydrogel polymer. This hydrogel is characterized by containing 80% water. It makes good contact with the skin, allows penetration of the drug through the container wall, hydrates the skin under the occlusive dressing, thus enhancing the percutaneous transport.
^14 C--BAPNfumarate, 2 μCi in 30 mg BAPNfumarate/ml, 0.1 ml
*% recovered in 24 hours

[15] = Work of flexion of tenolyzed flexor profundus tendon (Example 5); assay type: in vivo, White Leghorn chickens
Source text: will document the therapeutic effectiveness of direct infusions of β-aminopropionitrile fumarate solution into the dissected peritendinous adhesions in a rooster model of tendon injury.
Adult White Leghorn chickens were sedated with Pentothal, fixed to the operating table and given metacarpal local anesthesia with 1% xylocaine. Following surgical prep of the foot, a tourniquet was applied. Through a mid-lateral incision the sublimus tendon was removed from the long digit of both feet and a 4-0 braided stainless steel wire was passed through the entire length of the remaining profundus tendon to promote injury to the tendon by "scarification". The incision was closed with a continuous nylon suture, 4-0. Both feet were then incorporated in a plaster of Paris dressing with the feet in a functional position permitting the animals to walk while in the plaster.
Three weeks later the animals were prepared for surgery as above and the original incision was opened. A complete tenolysis was performed freeing the profundus tendon from surrounding fibrotic adhesions. […]
After 5 days of BAPN application the animals were sacrificed, the plaster dressings removed, and the legs amputated. […] The leg was then mounted in an Instron Tensiometer and measured traction was applied to the flexor profundus tendon at a rate of 2.5 cm/min while the flexion of the three digital joints was measured. […]

SMILES: N#CCCN [BAPN base]
- Stability under storage [1]: unstable under storage, undergoing hydrolysis forming ammonia and toxic acrylonitrile
- Skin penetration relative to BAPN fumarate [2]: approximately five times faster
- Skin penetration relative to BAPN fumarate ([2]; listed as BAPN-base): higher penetration

SMILES: C#CCN(C)Cc1ccccc1 [pargyline]
- Monoamine oxidase (MAO) inhibition (monoamine oxidase (MAO)): monoamine oxidase (MAO) inhibitor

SMILES: NNC(=O)c1ccncc1 [isoniazid]
- Lysyl oxidase inhibition (lysyl oxidase [3]): weak lysyl oxidase and MAO inhibitor
- Lathyritic effect of BAPN in combination (lysyl oxidase [4]): potentiate the lathyritic effects of BAPN
- Monoamine oxidase (MAO) inhibition (monoamine oxidase (MAO)): weak lysyl oxidase and MAO inhibitor

SMILES: CC(C)(S)[C@@H](N)C(=O)O [D-penicillamine]
- Direct inhibition of lysyl oxidase (lysyl oxidase [3]): direct inhibition of lysyl oxidase by D-penicillamine was demonstrated
- Changes in metal content in tissues and fluids (collagen [5]; after treatment): Striking changes in the metal content in various tissues and fluids
- Acute hypersensitivity reactions (collagen [5]; clinical studies, systemic): high incidence of acute hypersensitivity reactions
- Decrease of structural stability of collagen (collagen [5]; systemic): well-documented

SMILES: N#CCCN [BAPN, β-aminopropionitrile]
- Time to recovery of lysyl oxidase activity in granuloma tissue (lysyl oxidase [6]): 6 to 12 h
- Toxic side effects, short-term treatment (scleroderma; 2 g/day, short-term): no toxic side effects were noted
- Adverse reactions, longer courses (scleroderma; longer courses of treatment): prohibitive reactions, such as allergic skin rash and hemolytic anemia
- General toxicity at lathyrogenic dosages (collagen [7]; systemic, animals): the animals stop growing, lose body weight and lower their food intake
- Blocking the polymerization of collagen (collagen [7]; various animal models of fibrotic lesion): very effective
- Topical cytotoxicity, morphological or ultrastructural [8]: no morphological or ultrastructural evidence of topical cytotoxicity is found
- Concentration inhibiting lysyl oxidase (lysyl oxidase [3]): 10^-7 M
- Effectiveness as lathyrogenic agent on lysyl oxidase (lysyl oxidase [3]): the most effective
- Reversibility of lysyl oxidase inhibition (lysyl oxidase [3]): irreversible
- Inhibition of lysyl oxidase in granuloma tissue (lysyl oxidase [9]; painted onto skin over implanted sponge): significant inhibition of the enzyme activity in the lesion; also recorded: effectively inhibits lysyl oxidase in granuloma tissue
- Side effects [10]: undesirable side effects
- Tendon gliding / joint stiffness [10]: significantly improve the tendon gliding fraction or reduce stiffness
- Recovery in Urine (In % of the Total Dose) ([11]; 4 hours): 0.5%
- Recovery in Urine (In % of the Total Dose) ([11]; 8 hours): 1.01%
- Recovery in Urine (In % of the Total Dose) ([11]; 12 hours): 2.37%
- Recovery in Urine (In % of the Total Dose) ([11]; 24 hours): 5.40%
- Recovery in Urine (In % of the Total Dose) ([11]; 72 hours): 9.9%
- Recovery in Urine (In % of the Total Dose) ([11]; 96 hours): 15.2%
- Recovery in Urine (In % of the Total Dose) ([11]; 120 hours): 22.5%
- Side effects [12]: undesirable side effects
- Tendon gliding / joint stiffness [12]: significantly improve the tendon gliding fraction or reduce stiffness
- Covalent bonding of human collagen / clinical benefit (human collagen): decreased covalent bonding of human collagen with significant clinical benefit was demonstrated
- Hypersensitivity (human collagen): a significant number of the patients exhibited hypersensitivity to the agent

SMILES: N#CCN [aminoacetonitrile]
- Effectiveness as lathyrogenic agent on lysyl oxidase (lysyl oxidase [3]): the most effective

SMILES: N#CCCN [BAPN-fumarate, β-aminopropionitrile fumarate]
- Lysyl Oxidase Activity in the granuloma tissue (lysyl oxidase [9]; topical, 0.1 ml of 200 mg/ml every 12 hours for seven days, control 36.2 ± 7.1, P < 0.001, standard deviation): 1.8 ± 0.3 DPM/mg protein
- LD50 at 24 h ([13]; ip, intraperitoneally): 3000 mg/kg
- LD50 at 24 h ([13]; topical or ocular, percutaneously): 23100 mg/kg
- Increase of delivery, Group 6 compared with Group 1 ([14]; hydrophilic container with occlusive dressing vs phosphate buffer on intact skin): ~40 times
- Drug Recovery in the Urine, % Recovered in 6 hours ([14]; in phosphate buffer in 60% DMSO): 11.66%
- Drug Recovery in the Urine, % Recovered in 6 hours ([14]; in phosphate buffer in 60% DMSO, skin washed in 2% Ivory soap): 10.10%
- Drug Recovery in the Urine, % Recovered in 6 hours ([14]; in phosphate buffer on intact skin): 0.97%
- Drug Recovery in the Urine, % Recovered in 6 hours ([14]; in phosphate buffer, skin washed with 2% Ivory soap): 2.17%
- Drug Recovery in the Urine, % Recovered in 6 hours ([14]; in phosphate buffer, skin washed with 2% Ivory soap, occlusive bandage): 10.56%
- Drug Recovery in the Urine, % recovered in 24 hours ([14]; in phosphate buffer, skin washed with 2% Ivory soap, hydrophilic container, occlusive bandage, 24 hours): 35.00%
- Release / penetration over time ([11]; 120 hours of observation): continuous at the constant rate
- Tendon gliding ([15]; topical infusion): glided more easily; much lower force was needed to flex the finger
- Work of Flexion (Mean) ([15]; topical infusion every 12 hours for 5 days, 300 mg/ml, SD 4.25, saline control 44.8 (SD 9.9), P < 0.01): 13.10 gm/degree
